Assay results taken from US20250066423A1, “SESTRIN-MAPK COMPLEX INHIBITORS” (Sentcell Ltd, priority 2021, published 2025).
Peptide text beside a SMILES is read from it.

Experiments:
[1] = system: sMAC signalling (sestrin 1, 2 and 3 expression, AMPK and MAPK phosphorylation); assay: Immunoblot of sMAC signalling in CD4+ T cells treated with DOS compounds (heat-map); type: cell-based, human
Experimental: CD4+ T cells were isolated from PBMCs from healthy donors, treated with DOS compounds for 4 hours and harvested for immunoblot analysis. The heat-map of Sestrin 1, Sestrin 2, Sestrin 3, p-mTOR1, p-JNK, p-AMPK, p-ERK1/2, and p-p38, represents the mean of three to nine experiments. Histone 3 was used as a control.
• 1. CD4+ cells were separated from PBMC using appropriate microbeads kit (Miltenyi) • 2. Cells were resuspended in whole RPMI medium and plated in the 24-multiwell plate • 3. Then activated for 4 hrs with DOS compounds • 4. Cells were then harvested, washed with PBS and resuspended in lysis buffer (RIPA with […]) • 5. The cell-lysis mix was incubated for 20 mins on ice • 6. Samples were centrifuged for 20 mins at the max speed • 7. The supernatant was collected and Lemmli buffer+β-Mercaptoethanol was added • 8. Samples were then boiled for 5 mins at 95° C. • 9. Samples were loaded on the polyacrylamide gel and left to run in TRIS-Glycine-SDS running buffer • 10. Once the run was completed the proteins were transferred from the gel to the nitrocellulose membrane by using the Trans-Blot machine (Biorad) • 11. Membrane was washed with 0.1% Tween-TBS buffer and blocked in 5% non-fat milk for 1 hr • 12. Followed incubation with the primary antibody o.n. • 13. The day after, the membrane was washed with 0.1% Tween-TBS buffer for three times for at least 30 mins each • 14. Secondary antibody was then added for 1h • 15. The membrane was the washed with 0.1% Tween-TBS buffer for three times for at least 30 mins each • 16. The signal was developed using ECL solution
This was shown by downregulation of sestrin 1, 2 and 3 expression, and AMPK and MAPK phosphorylation.

[2] = target: T1, recombinant sestrin 3 (Homo sapiens, UniProt P58005); assay: Streptavidin pull-down of biotinylated DOS46L with flag recombinant sestrins; type: binding; settings: in vitro
T1 sequence (P58005 1-492): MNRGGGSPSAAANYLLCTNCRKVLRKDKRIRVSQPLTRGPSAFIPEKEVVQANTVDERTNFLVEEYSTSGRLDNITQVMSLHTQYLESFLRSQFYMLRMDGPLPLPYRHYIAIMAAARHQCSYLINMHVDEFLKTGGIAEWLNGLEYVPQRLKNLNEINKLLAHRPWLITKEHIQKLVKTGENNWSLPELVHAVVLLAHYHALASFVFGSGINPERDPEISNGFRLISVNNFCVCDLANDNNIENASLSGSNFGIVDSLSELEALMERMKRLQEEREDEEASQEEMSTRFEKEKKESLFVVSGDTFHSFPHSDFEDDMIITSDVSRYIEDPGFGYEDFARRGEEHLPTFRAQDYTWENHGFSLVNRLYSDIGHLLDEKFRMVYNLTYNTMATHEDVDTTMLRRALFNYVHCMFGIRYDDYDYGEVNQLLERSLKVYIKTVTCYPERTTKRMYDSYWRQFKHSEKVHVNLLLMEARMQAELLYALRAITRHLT
Experimental: However, it should be considered that direct binding is not a pre-requisite for DOS sestrin inhibitory function.
(A) Biotinylated DOS46L was mixed with flag recombinant Sestrins, immunoprecipitated with streptavidin and immunoblotted with flag Sestrins. […] Representative images from three experiments are shown. […] (D) DOS46L binds to the entire sMAC complex in CD4 T cells. CD4+ T cells were isolated from PBMCs from healthy donors and treated with biotinylated DOS46L compound (10 uM) for 4 hours. Cells were harvested for immunoprecipitation analysis.

[3] = system: T cells; assay: Seahorse assay for cell metabolism (OCR, FAO); type: cell-based, human; settings: T cells treated for 24h
Experimental: Senescent T cells and stem cells were analysed using FACS analysis. (B—C) Represented is the ratio to untreated sample. Each dot is an individual donor. (D) Oxygen Consumption Rate (OCR) of T cells treated with DOS46L for 24h were measured by Seahorse. […] (E) The FAO index was calculated by OCR difference between Ctrl and DOS46L treated T cells in the presence or in the absence of the FAO inhibitor etomoxir by Seahorse. Student's T-test was used to analyse the data. **p<0.01; ***p<0.001.
• 1. CD4+ cells were purified from PBMC using appropriate microbeads (Miltenyi) • 2. Purified CD4+ cells were activated with CD3/CD28 Dynabeads (Gibco) and treated over-night with DOS46L at 10 μM. • 3. Day after, the conventional growth media was removed from the cells and was added the “substrate-limited growth media” composed of basic DMEM plus 0.5 mM glucose, 1 mM glutamine and 1% FBS. • 4. Cells were then incubated with this media for 4 hrs in incubator. • 5. Cells were then counted and plated at the concentration of 2*10^5 cells/well in the XF96 well plate pre-treated with poly-lysine. • 6. Cells were then supplemented with the “assay media” composed of XF DMEM with 2 mM of glucose and 0.5 mM L-carnitine. • 7. […] Seahorse machine took reads of OCR values at different time points for the time span of 120 mins. […] Cells were left in incubator for 12 days and then they were analysed.

[4] = system: PBMCs from elderly donors, heat-inactivated SARS-COV2; assay: COVID-specific antibodies in PBMCs from elderly donors (ELISA); type: cell-based, human; settings: PBMCs from elderly donors (75-95 years), 10 uM
[5] = system: H1N1 PR8/54; type: in vivo, mice

Question: What does the source list for `CC[C@H](C)[C@@H]1NC(=O)[C@H](Cc2ccccc2)NC(=O)[C@H](C)NC(=O)[C@H](C(C)C)NC(=O)[C@@H]2CCCN2C1=O` [DOS46L] (cyclo(AFIPV))?
Answer: effectiveness at sMAC inactivation among all of the DOS compounds tested [1]: most effective; sMAC pathway silenced [1]: 90%; sestrins inhibited (pan or selective inhibitor) ([1]; CD4+ T cells, 4 hours, FIG. 5 heat-map): inhibit all three sestrins; direct binding to recombinant sestrin 3 [2]: does not directly bind; oxidative metabolism and Fatty Acid Oxidation (FAO) [3]: Induction of Fatty Acid Oxidation (FAO); COVID-specific IgG antibodies [4]: stimulation of COVID-specific antibodies; relative effectiveness at low dose ([5]; 0.1. mg/Kg): more effective at a very low dose; survival data, comparison of compounds ([5]; old mice, vaccination with DOS, H1N1 PR8/54): similar
